From ChEMBL document CHEMBL1909046, “DrugMatrix in vitro pharmacology data”

Assays:
[1] = molecular target: T1, Alpha-1B adrenergic receptor (Rattus norvegicus, UniProt P15823); experiment: DRUGMATRIX: Alpha-1B adrenergic receptor radioligand binding (ligand: prazosin); assay type: cell membranes, Wistar, Liver, Membrane; details: Not Active = under 50% inhibition at 10 µM
T1 sequence (P15823 whole entry): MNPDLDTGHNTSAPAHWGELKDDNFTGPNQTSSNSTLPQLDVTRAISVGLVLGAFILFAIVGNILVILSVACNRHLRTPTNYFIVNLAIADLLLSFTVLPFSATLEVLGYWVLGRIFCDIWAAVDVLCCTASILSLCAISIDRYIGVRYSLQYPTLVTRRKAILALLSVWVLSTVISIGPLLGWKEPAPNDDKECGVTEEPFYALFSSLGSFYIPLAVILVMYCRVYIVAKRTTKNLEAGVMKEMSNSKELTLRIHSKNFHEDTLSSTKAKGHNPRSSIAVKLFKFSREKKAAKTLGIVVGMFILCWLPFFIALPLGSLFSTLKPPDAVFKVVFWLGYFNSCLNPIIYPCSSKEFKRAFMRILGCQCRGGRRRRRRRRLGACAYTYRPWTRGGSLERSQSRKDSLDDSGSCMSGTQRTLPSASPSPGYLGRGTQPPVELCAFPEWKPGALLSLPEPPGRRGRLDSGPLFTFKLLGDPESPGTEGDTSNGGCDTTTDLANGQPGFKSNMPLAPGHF

D(1A) dopamine receptor = D(1A) dopamine receptor (Homo sapiens, UniProt P21728); experiment: DRUGMATRIX: Dopamine D1 radioligand binding (ligand: [3H] SCH-23390); assay type: cell membranes, CHO, Membrane; details: cho, Not Active = under 50% inhibition at 10 µM
Sequence of D(1A) dopamine receptor (P21728 whole entry): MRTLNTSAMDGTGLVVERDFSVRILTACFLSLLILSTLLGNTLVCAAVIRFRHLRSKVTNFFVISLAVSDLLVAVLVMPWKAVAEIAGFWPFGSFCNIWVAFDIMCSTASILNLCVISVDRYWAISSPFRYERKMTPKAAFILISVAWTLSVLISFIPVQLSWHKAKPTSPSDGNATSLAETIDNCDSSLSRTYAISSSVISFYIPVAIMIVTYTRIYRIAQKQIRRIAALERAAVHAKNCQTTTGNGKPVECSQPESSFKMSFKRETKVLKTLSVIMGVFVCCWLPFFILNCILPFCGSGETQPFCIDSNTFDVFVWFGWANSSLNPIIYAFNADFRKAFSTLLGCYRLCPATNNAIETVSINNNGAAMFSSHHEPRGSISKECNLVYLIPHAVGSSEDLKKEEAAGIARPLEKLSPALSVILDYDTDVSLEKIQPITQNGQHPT

[2] = molecular target: T2, Muscarinic acetylcholine receptor M4 (Homo sapiens, UniProt P08173); assay type: cell membranes, CHO-K1, Membrane; details: cho-k1; further: in other assays of this panel Not Active means under 50% inhibition at 10 µM
T2 sequence (P08173 whole entry): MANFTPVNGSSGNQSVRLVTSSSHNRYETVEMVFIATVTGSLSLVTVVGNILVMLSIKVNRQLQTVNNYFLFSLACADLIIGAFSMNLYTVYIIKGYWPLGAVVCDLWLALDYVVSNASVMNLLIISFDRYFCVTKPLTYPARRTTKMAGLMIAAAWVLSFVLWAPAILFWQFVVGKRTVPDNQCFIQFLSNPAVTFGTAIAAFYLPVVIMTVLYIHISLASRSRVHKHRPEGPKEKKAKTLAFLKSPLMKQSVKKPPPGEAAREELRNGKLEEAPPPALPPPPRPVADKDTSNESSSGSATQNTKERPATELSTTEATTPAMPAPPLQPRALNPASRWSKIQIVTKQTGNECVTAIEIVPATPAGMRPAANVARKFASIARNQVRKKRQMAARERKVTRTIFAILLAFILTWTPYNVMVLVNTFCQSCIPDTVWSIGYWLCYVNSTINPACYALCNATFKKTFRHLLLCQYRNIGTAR

[3] = molecular target: T3, Nitric oxide synthase, inducible (Mus musculus, UniProt P29477); parameters: species or system Escherichia coli;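 further: inhibition of iNOS enzyme activity measured with L-arginine as substrate; in other assays of this panel Not Active means under 50% inhibition at 10 µM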
T3 sequence (P29477 whole entry): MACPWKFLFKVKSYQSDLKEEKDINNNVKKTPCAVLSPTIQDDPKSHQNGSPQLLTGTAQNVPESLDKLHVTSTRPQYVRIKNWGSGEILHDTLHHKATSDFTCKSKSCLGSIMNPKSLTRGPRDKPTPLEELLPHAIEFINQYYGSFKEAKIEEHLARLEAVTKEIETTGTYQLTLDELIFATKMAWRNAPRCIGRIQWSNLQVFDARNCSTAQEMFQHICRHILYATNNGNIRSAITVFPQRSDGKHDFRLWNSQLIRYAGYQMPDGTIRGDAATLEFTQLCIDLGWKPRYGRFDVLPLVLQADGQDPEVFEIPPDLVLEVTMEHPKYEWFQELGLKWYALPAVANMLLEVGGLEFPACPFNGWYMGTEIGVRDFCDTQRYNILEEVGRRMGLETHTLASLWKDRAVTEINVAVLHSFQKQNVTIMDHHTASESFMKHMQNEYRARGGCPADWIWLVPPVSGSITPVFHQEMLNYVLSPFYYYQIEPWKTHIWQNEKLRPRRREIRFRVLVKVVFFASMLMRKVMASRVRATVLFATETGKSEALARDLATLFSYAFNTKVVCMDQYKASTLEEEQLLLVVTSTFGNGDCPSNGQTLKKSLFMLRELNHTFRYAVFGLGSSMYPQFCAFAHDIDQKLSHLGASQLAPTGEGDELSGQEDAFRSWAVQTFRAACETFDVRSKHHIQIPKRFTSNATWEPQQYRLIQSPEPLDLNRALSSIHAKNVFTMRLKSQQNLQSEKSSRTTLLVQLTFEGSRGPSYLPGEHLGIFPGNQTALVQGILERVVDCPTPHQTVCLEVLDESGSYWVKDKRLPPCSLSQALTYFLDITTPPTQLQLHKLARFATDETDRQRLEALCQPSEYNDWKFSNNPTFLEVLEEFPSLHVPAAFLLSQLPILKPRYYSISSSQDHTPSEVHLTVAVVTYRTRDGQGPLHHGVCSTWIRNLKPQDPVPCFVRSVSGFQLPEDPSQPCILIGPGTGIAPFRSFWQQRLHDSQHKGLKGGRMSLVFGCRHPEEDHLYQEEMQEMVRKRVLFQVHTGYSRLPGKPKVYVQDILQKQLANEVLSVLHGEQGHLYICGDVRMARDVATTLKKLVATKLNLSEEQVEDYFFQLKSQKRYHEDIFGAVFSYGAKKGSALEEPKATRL

[4] = DRUGMATRIX: Phosphodiesterase PDE3 enzyme inhibition (substrate: [3H]cAMP + cAMP); assay type: tissue-based, Homo sapiens; details: platelet; Not Active = under 50% inhibition at 10 µM
Cathepsin G = molecular target: T4, Cathepsin G (Homo sapiens, UniProt P08311); assay type: tissue-based; details: neutrophil;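 further: inhibition of Cathepsin G enzyme activity, tested on an AMC-conjugated peptide substrate; in other assays of this panel Not Active means under 50% inhibition at 10 µM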
T4 sequence (P08311 whole entry): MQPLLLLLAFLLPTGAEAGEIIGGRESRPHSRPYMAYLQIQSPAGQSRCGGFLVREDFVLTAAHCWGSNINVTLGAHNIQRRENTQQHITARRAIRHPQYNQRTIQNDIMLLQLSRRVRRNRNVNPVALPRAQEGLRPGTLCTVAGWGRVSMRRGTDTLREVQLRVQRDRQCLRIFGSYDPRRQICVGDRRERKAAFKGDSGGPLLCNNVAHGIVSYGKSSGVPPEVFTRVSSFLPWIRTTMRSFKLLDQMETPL

[5] = molecular target: Matrix metalloproteinase-9 (Homo sapiens, UniProt P14780); assay type: cell-based;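 further: inhibition of isolated MMP-9 enzyme activity toward a synthetic peptide substrate, from the DrugMatrix protease screening panel; in other assays of this panel Not Active means under 50% inhibition at 10 µM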
Sequence of Matrix metalloproteinase-9 (P14780 whole entry): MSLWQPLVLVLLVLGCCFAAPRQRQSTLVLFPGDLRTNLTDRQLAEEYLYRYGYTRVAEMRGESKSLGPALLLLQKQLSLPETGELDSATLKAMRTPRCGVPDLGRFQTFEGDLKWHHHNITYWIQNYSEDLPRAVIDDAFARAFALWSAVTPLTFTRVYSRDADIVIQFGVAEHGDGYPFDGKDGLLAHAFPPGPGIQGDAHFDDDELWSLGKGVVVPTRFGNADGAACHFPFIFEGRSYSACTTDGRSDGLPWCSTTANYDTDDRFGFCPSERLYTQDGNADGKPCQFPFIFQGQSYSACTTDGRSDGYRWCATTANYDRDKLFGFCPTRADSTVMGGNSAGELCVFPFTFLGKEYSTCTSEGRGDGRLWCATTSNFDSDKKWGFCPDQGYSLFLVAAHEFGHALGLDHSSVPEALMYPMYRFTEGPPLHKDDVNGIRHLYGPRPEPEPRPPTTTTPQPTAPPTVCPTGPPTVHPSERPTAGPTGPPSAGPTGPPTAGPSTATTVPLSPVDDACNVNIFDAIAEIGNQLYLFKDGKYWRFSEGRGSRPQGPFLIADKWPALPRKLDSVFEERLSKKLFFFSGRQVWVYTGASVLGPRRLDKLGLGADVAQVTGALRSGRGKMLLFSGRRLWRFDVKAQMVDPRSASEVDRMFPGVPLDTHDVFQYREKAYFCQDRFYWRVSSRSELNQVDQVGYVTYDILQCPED

[6] = molecular target: Protein kinase C alpha type (Homo sapiens, UniProt P17252); assay type: cell-based; details: sf9
[7] = molecular target: Epidermal growth factor receptor (Homo sapiens, UniProt P00533); experiment: DRUGMATRIX: Protein Tyrosine Kinase, EGF Receptor enzyme inhibition (substrate: Poly(Glu:Tyr)); assay type: cell-based, Insect cells; details: insect cells; Not Active = under 50% inhibition at 10 µM
[8] = DRUGMATRIX: Purinergic P2X radioligand binding (ligand: [3H] alpha, beta-Methylene-ATP); assay type: cell membranes, Oryctolagus cuniculus, New Zealand albino, Urinary bladder, Membrane; details: Not Active = under 50% inhibition at 10 µM

Compound	IC50 [1]	IC50 (D(1A) dopamine receptor)	IC50 [2]	IC50 [3]	IC50 [4]	Ki [4]	IC50 (Cathepsin G)	IC50 [5]	IC50 [6]	IC50 [7]	IC50 [8]	Ki [8]	also measured
c1ccc2[nH]c(-c3cscn3)nc2c1 [THIABENDAZOLE]	Not Active	Not Active	Not Active	Not Active	Not Active	Not Active	Not Active	Not Active	Not Active	Not Active	Not Active	Not Active	
Cc1cc(NS(=O)(=O)c2ccc(N)cc2)no1 [SULFAMETHOXAZOLE]	Not Active	Not Active	Not Active	Not Active	Not Active	Not Active	Not Active	Not Active	Not Active	Not Active	Not Active	Not Active	
COc1c(C)c2c(c(O)c1C/C=C(\C)CCC(=O)OCCN1CCOCC1)C(=O)OC2 [MYCOPHENOLATE MOFETIL]	Not Active	Not Active	Not Active	Not Active	Not Active	Not Active	Not Active	Not Active	Not Active	Not Active	Not Active	Not Active	
Nc1ccc(S(=O)(=O)Nc2ccnn2-c2ccccc2)cc1 [SULFAPHENAZOLE]	Not Active	Not Active	Not Active	Not Active	Not Active	Not Active	Not Active	Not Active	Not Active	Not Active	Not Active	Not Active	
CC1CN(c2cc3c(cc2F)c(=O)c(C(=O)O)cn3-c2ccc(F)cc2F)CCN1 (stereo not drawn) [TEMAFLOXACIN]	Not Active	Not Active	Not Active	Not Active	Not Active	Not Active	Not Active	Not Active	Not Active	Not Active	Not Active	Not Active	
IVERMECTIN	Not Active		Not Active	Not Active	Not Active	Not Active	Not Active	Not Active	Not Active	Not Active	Not Active	Not Active	Ki [1]: Not Active; IC50 (D(1A) dopamine receptor; read-out: IC50): 4.51 µM; Ki (D(1A) dopamine receptor; read-out: Ki): 2.26 µM; Ki [2]: Not Active; Ki [3]: Not Active; Ki (Cathepsin G): Not Active; Ki [5]: Not Active; Ki [6]: Not Active; Ki [7]: Not Active
CN[C@H](CC(C)C)C(=O)N[C@H]1C(=O)N[C@@H](CC(N)=O)C(=O)N[C@H]2C(=O)N[C@H]3C(=O)N[C@H](C(=O)N[C@H](C(=O)O)c4cc(O)cc(O)c4-c4cc3ccc4O)[C@H](O)c3ccc(c(Cl)c3)Oc3cc2cc(c3O[C@@H]2O[C@H](CO)[C@@H](O)[C@H](O)[C@H]2O[C@H]2C[C@](C)(N)[C@H](O)[C@H](C)O2)Oc2ccc(cc2Cl)[C@H]1O [VANCOMYCIN]	Not Active	Not Active	Not Active	Not Active	Not Active	Not Active	Not Active	Not Active	Not Active	Not Active	Not Active	Not Active	
CC(=O)S[C@@H]1CC2=CC(=O)CC[C@]2(C)[C@H]2CC[C@@]3(C)[C@@H](CC[C@@]34CCC(=O)O4)[C@H]12 [SPIRONOLACTONE]	Not Active	Not Active	Not Active	Not Active	Not Active	Not Active	Not Active	Not Active	Not Active	Not Active	Not Active	Not Active	
COc1cc(C(=O)NC2CCCNC2)cc(OC)c1OC (stereo not drawn) [TROXIPIDE]	Not Active	Not Active	Not Active	Not Active	Not Active	Not Active	Not Active	Not Active	Not Active	Not Active	Not Active	Not Active	
Cc1ccc(C(=O)C(C)CN2CCCCC2)cc1 (stereo not drawn) [TOLPERISONE]	Not Active	Not Active	Not Active	Not Active	Not Active	Not Active	Not Active	Not Active	Not Active	Not Active	Not Active	Not Active	
